In PMC10122656, “Siglec-6 mediates the uptake of extracellular vesicles through a noncanonical glycolipid binding pocket” (Nature Communications, 2023):
Where “and” joins values, the source holds several entries; their conditions need not be identical. Identical values can stand only once.

What was measured:
[1] = target: T1, CHO cells expressing Siglec-1 (Homo sapiens, UniProt Q9BZZ2); experiment: Liquid glycan array (LiGA) binding read out by next-generation sequencing; assay type: cell-based; conditions: for LiGA signal at 0.034: Figure S9, 0.034; for LiGA signal at 0.041: Figure S9, 0.041; for LiGA signal at 0.048: Figure S9, first column 0.048; for LiGA: ganglioside oligosaccharide on phage binding to Siglec-1 CHO cells (Fig. 1e): replicates; for density at which LiGA binding to Siglec-1 CHO cells was maximal: oligosaccharide on phage; for LiGA signal at 0.019: Figure S9, 0.019; for LiGA signal at 0.06: Figure S9, 0.06
T1 construct: expressed in transfected cells
Method: (§1) Solution of five SDB phage clones (10^12−10^13 PFU/mL in PBS) was combined in equal amounts (50 µL) to create a multiplexed silent barcode (MSDB). Twenty-four such MSDB were created and combined DBCO-NHS (50 mM in DMF) to afford a final concentration ranging from 0.25 to 2 mM. The reaction was incubated for 45 min at room temperature. The conjugates were purified by Zeba™ Spin Desalting column (7 kDa MWCO, 0.5 mL, Thermo Fisher) and pVIII modification rate was confirmed by MAL/DI using a previously reported protocol. Typically, 1 mM DBCO-NHS yields 25% of pVIII modification after 45 min incubation. Six MSDB were combined and a solution of azido-glycans (10 mM stock in Nuclease Free H2O) was added to the solution to afford a 2 mM concentration of glycan-azide and the solutions were further incubated overnight at 4 °C. The glycan conjugation was confirmed using MALDI-TOF. The conjugates were purified by Zeba column and supplemented with glycerol and stored as 50% glycerol stock at −20 °C. LiGA mixture was prepared by combining these solutions.
as §1, with “The solution of five” for “Solution of five”, “Fisher) and the pVIII modification” for “Fisher) and pVIII modification”
Confluent CHO cells expressing Siglec-1 or UT CHO cells were detached using PBS plus 5 mM EDTA and washed with PBS (2 × 5 mL). Suspension of at 2 × 10^6 cells in HEPES-1, % BSA (20 mM HEPES, 150 mM NaCl, 2 mM CaCl2, pH 7.4, 1% BSA) in a round bottom 3 mL tube (Corning, #352054) was combined with LiGA (10^8 PFU) and incubated for 1 h at 4 °C. The cells were then washed with HEPES-0.1% BSA in (2 × 3 mL) and HEPES buffer (1 × 1 mL). The washed cell pellet was resuspended in 30 µL nuclease-free H2O. The solution was incubated at 90 °C for 15 min, centrifuged at 21,000 × g for 10 min, and 25 µL of the supernatant was used for PCR and sequencing.

Siglec-7-Fc WT = target: T2, Siglec-7-Fc WT (Homo sapiens, UniProt Q9Y286); experiment: Liposome over lectin assay (LOLA); assay type: binding; conditions: Siglec-7 WT; replicates
T2 construct: the Siglecs as Fc chimeras; made in house; host or cells: WT CHO cells
Method: (§2) Siglec-Fc constructs designed by Rodrigues et al.[30] were used in this work. Siglec-Fc constructs were expressed using WT CHO cells in cell culture media as described above with 1% HEPES. Cells incubated as described above for one-week post confluency. The supernatant was harvested and stored at 4 °C.
(§3) The purification was heavily inspired by Rodrigues et al.[30]. The purification of the Siglec-Fcs from supernatant began with Ni^2+ affinity chromatography using an AKTA FPLC equipped with a HisTrap Excel column (GE). The column was equilibrated with fifteen column volumes (CVs) of equilibrium buffer (500 mM NaCl, 20 mM NaPO4H2, pH 7.4). The Siglec-Fc containing supernatant was then loaded in its entirety onto the column. The column was then washed with fifteen CVs of wash buffer (500 mM NaCl, 30 mM imidazole, 20 mM NaPO4H2, pH 7.4). The Siglec-Fc was then eluted in 20 in 1 mL fractions with twenty CVs of elution buffer (500 mM NaCl, 500 mM imidazole, 20 mM NaPO4H2, pH 7.4). Fractions containing Siglec-Fc were compiled and then prepared for the next stage of purification by diluting the fractions 1:4 with buffer W (100 mM Tris–HCl, 150 mM NaCl, 1 mM EDTA, pH 8.0). A Strep-Tactin column (IBA life sciences) was washed with fifteen CVs of buffer W. The Siglec-Fc-buffer W solution was then loaded in its entirety onto the column. The bound Siglec-Fc was then washed with fifteen CVs of buffer W. Siglec-Fc was eluted from the column with 15 column volumes of buffer E (100 mM Tris–HCl, 150 mM NaCl, 1 mM EDTA, 10 mM d-Desthiobiotin, pH 8.0). Fractions containing Siglec-Fc were pooled and dialyzed against PBS to remove any d-Desthiobiotin. After dialysis, Siglec-Fcs were concentrated using an ultra-centrifugal device (30 kDa MWCO) and aliquoted into 5 µg aliquots, and frozen. The Siglec-Fcs were then lyophilized overnight, and the lyophilized Siglec-Fcs were stored at −20 °C.
(§4) Siglec-Fc in PBS was adsorbed to a 96-well flat-bottom fluorescent microplate by adding 1 µg/well and incubating the plate at 4 °C overnight. The plate was then washed with PBS followed by blocking with 5% (m/V) BSA in PBS for 1 h at room temperature. The plate was again washed with PBS and 100 µM liposome in PBS was added to each well. The plate was then incubated at 37 °C for 30 min followed by washing with PBS. PBS was then added to the plate and the fluorescence intensity (λex 640 nm, λem 680 nm) of each well was measured using a Molecular Devices SpectraMAX ® iD5.

Siglec-7-Fc R124A = target: T3, Siglec-7-Fc R124A (Homo sapiens, UniProt Q9Y286, R124A); experiment: Liposome over lectin assay (LOLA); assay type: binding; conditions: Siglec-7 R (arginine mutant); replicates
T3 construct: the Siglecs as Fc chimeras; made in house; host or cells: WT CHO cells
Method: as §2, §3, §4

R122A Siglec-6-Fc = target: T4, R122A Siglec-6-Fc (Homo sapiens, UniProt O43699, R122A); experiment: Liposome over lectin assay (LOLA); assay type: binding; conditions: Siglec-6 R (arginine mutant); replicates
T4 construct: the Siglecs as Fc chimeras; made in house; host or cells: WT CHO cells
Method: as §2, §3, §4

Siglec-6-Fc WT = target: T5, Siglec-6-Fc WT (Homo sapiens, UniProt O43699); experiment: Liposome over lectin assay (LOLA); assay type: binding; conditions: Siglec-6 WT; replicates
T5 construct: the Siglecs as Fc chimeras; made in house; host or cells: WT CHO cells
Method: as §2, §3, §4

Siglec-1-Fc WT = Siglec-1-Fc WT (Homo sapiens, UniProt Q9BZZ2); experiment: Liposome over lectin assay (LOLA); assay type: binding; conditions: Siglec-1 WT; replicates
Method: as §2, §3, §4

[2] = oligosaccharide density 0.008 Ligand/nm2
[3] = oligosaccharide density 0.019 Ligand/nm2
[4] = oligosaccharide density 0.034 Ligand/nm2
[5] = oligosaccharide density 0.041 Ligand/nm2
[6] = oligosaccharide density 0.048 Ligand/nm2
[7] = oligosaccharide density 0.06 Ligand/nm2

T3 sequence (Q9Y286 19-353 R124A limits assumed): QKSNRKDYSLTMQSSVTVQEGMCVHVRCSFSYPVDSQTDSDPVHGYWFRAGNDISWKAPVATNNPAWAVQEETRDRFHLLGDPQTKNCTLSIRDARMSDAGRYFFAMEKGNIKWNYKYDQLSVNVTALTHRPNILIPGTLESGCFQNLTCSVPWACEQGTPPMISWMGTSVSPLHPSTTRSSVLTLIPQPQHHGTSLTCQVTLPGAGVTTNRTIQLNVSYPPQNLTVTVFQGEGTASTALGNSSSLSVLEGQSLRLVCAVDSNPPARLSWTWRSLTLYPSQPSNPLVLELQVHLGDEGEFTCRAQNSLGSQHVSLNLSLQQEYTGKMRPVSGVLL
Chain of Siglec-1-Fc WT (Q9BZZ2 20-136 limits assumed): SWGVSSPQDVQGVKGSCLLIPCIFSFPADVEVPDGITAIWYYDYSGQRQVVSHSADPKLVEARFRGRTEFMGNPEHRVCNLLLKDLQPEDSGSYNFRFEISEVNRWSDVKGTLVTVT
T5 sequence (O43699 27-347 limits assumed): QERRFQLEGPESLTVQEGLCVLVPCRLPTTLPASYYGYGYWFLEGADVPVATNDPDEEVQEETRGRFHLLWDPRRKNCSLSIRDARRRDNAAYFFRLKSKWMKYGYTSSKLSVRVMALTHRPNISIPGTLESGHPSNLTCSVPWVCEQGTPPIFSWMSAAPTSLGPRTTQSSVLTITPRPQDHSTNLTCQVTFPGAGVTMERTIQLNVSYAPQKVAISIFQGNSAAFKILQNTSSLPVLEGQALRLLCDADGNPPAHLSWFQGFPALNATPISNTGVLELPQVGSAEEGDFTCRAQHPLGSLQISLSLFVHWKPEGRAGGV
T1 sequence (Q9BZZ2 20-1709): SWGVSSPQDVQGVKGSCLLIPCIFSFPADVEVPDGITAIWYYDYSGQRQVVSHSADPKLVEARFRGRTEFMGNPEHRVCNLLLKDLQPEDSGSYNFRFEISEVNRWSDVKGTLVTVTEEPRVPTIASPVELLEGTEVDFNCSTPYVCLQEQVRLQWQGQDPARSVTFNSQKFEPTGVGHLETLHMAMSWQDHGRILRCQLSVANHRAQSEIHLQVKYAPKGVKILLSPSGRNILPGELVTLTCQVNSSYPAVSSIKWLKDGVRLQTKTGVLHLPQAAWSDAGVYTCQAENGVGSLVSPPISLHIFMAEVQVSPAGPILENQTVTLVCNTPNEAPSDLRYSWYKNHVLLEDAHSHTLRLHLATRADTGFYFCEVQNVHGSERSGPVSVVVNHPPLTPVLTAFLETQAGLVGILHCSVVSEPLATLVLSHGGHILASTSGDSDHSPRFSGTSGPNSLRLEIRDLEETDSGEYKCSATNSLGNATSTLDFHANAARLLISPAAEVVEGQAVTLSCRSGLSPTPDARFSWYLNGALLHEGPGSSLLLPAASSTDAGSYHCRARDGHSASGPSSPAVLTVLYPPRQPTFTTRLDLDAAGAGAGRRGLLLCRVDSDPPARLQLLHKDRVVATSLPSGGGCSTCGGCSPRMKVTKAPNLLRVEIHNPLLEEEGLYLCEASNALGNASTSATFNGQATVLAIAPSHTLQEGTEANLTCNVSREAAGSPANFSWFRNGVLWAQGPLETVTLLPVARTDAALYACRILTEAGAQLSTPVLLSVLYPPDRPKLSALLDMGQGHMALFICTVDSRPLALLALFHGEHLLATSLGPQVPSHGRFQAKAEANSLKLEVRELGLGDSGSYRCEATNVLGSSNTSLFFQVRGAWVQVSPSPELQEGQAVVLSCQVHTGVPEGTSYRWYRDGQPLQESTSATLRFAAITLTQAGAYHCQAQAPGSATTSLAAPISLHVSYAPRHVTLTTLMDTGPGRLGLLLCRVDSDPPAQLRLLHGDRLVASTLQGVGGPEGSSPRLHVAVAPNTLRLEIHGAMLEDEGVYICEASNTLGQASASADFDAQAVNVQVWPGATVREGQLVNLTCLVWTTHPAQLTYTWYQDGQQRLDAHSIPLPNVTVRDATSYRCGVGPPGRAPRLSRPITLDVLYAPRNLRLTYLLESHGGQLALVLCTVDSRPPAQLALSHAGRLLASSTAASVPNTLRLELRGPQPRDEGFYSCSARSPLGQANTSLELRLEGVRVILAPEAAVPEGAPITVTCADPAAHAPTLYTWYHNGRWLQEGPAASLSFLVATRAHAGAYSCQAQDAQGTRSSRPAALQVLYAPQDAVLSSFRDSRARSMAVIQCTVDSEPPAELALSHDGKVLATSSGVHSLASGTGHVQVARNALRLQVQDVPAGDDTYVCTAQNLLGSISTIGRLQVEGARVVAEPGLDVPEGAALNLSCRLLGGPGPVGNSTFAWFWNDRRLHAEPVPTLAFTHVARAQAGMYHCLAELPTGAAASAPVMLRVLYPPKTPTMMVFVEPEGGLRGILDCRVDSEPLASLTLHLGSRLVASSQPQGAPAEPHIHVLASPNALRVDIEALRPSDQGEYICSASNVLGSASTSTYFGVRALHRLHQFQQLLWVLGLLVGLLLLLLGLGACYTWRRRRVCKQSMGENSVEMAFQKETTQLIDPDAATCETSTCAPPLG
T2 sequence (Q9Y286 19-353 limits assumed): as the sequence (Q9Y286 19-353 R124A limits assumed) above, with A106R counted along it
T4 sequence (O43699 27-347 R122A limits assumed): as the sequence (O43699 27-347 limits assumed) above, with R96A counted along it

Substance	LiGA signal at 0.034 [1]	LiGA signal at 0.041 [1]	LiGA signal at 0.048 [1]	LiGA signal at 0.066 ([1]; Figure S9, first column 0.066)	LiGA: ganglioside oligosaccharide on phage binding to Siglec-1 CHO cells (Fig. 1e) [1, 2]	LiGA: ganglioside oligosaccharide on phage binding to Siglec-1 CHO cells (Fig. 1e) [1, 3]	LiGA: ganglioside oligosaccharide on phage binding to Siglec-1 CHO cells (Fig. 1e) [1, 4]	LiGA: ganglioside oligosaccharide on phage binding to Siglec-1 CHO cells (Fig. 1e) [1, 5]	LiGA: ganglioside oligosaccharide on phage binding to Siglec-1 CHO cells (Fig. 1e) [1, 6]	LiGA: ganglioside oligosaccharide on phage binding to Siglec-1 CHO cells (Fig. 1e) ([1]; oligosaccharide density 0.066 Ligand/nm2)	density at which LiGA binding to Siglec-1 CHO cells was maximal [1]	LOLA: GLL binding, fluorescence plate reader (Fig. 2e) (Siglec-7-Fc WT)	LOLA: GLL binding, fluorescence plate reader (Fig. 2e) (Siglec-7-Fc R124A)	LOLA: GLL binding, fluorescence plate reader (Fig. 2e) (R122A Siglec-6-Fc)	LOLA: GLL binding, fluorescence plate reader (Fig. 2e) (Siglec-6-Fc WT)	LOLA: GLL binding, fluorescence plate reader (Fig. 2e) (Siglec-1-Fc WT)	LiGA signal at 0.019 [1]	LiGA signal at 0.06 [1]	LiGA: ganglioside oligosaccharide on phage binding to Siglec-1 CHO cells (Fig. 1e) [1, 7]
GD1a	3.442 and 2.502 and 3.222 and 3.062 and 2.777	1.814 and 2.04 and 1.9 and 2.274 and 1.639	1.684 and 1.501 and 1.621 and 1.606	2.309 and 1.395 and 2.352 and 2.266	0.05 (4×) and 0.04	0.2 and 0.13 and 0.03 and 0.15	0.41 and 0.39 and 0.36 and 0.44 and 0.32	0.24 and 0.29 and 0.21 and 0.23 and 0.26	0.19 and 0.21 (2×) and 0.22 and 0	0.18 and 0.3 (2×) and 0.29	~ 26 nm^2/ligand	7.1 and 6.68 and 9.94 and 10.73 and 13.26	6.47 and 10.42 and 11.8 and 5.25 and 10.13	37.34 and 37.32 and 38.57 and 41.15 and 44.1	28.61 and 32.95 and 30.67 and 25.13 and 23.55	13.17 and 9.49 and 10.37 and 14.33 and 18.05			
GD3												10.57 and 10.04 and 18 and 18.66 and 20.44	-0.64 and 18.58 and 8.22 and 12.6 and 8.15	36.87 and 29.95 and 29.9 and 34.98 and 32.24	33.08 and 30.39 and 25.39 and 23.72 and 21.46	9.49 and 6.85 and 10.11 and 9.9 and 7.11			
GM1	0.857 and 0.909 and 0.746 and 0.756 and 0.912		0.51 and 0.478 and 0.553 and 0.673		0.12 and 0.09 (2×) and 0.04	0.08 (2×) and 0.1 (2×)	0.11 and 0.12 (2×) and 0.1 (2×)	0.07 (3×) and 0.08	0.07 (2×) and 0.06 and 0.09			6.49 and 5.21 and 2.94 and 8.58 and 5.66	2.83 and 4.02 and 10.31 and 3.55 and 12.57	17.43 and 40.61 and 36.66 and 31.85 and 32.16	18.34 and 20.42 and 17.75 and 12.02 and 17.78	5.66 and 12.97 and 11.61 and 4.8 and 8.91	0.643 and 0.783 and 0.76 and 0.6	1.503 and 0.848 and 1.103 and 0.902 and 1.094	0.19 and 0.11 and 0.14 (2×) and 0.12
GM2			6.111 and 6.403 and 6.572 and 7.724 and 12.213		0.1 (2×) and 0.05 and 0.07	0.12 (3×) and 0.13 and 0.23	0.71 and 1.24 and 1.08 and 1.35 and 0.62		0.82 and 0.84 and 0.99 and 0.78		~ 26 nm^2/ligand						0.917 and 0.919 and 0.922 and 1.035 and 1.785	5.095 and 7.961 and 4.56 and 5.475	1.02 and 0.58 and 0.7 and 0.65
GM3	0.358 and 0.619 and 0.601 and 0.534	0.827 and 1.082 and 1.01 and 1.1 and 0.616	0.881 and 0.783 and 0.773 and 1.152		0.19 and 0.09 and 0.07 and 0.1 and 0.08	0.12 and 0.11 and 0.1 and 0.19 and 0.05	0.05 and 0.08 (2×) and 0.07	0.11 and 0.14 (2×) and 0.13 and 0.08	0.11 and 0.1 (2×) and 0.15										0.13 and 0.15 and 0.07 and 0.06
GQ1b												15.3 and 24.18 and 22.56 and 26.04 and 30.34	6.14 and 4.56 and 5.96 and 16.03 and 20.32	25.13 and 35.2 and 35.69 and 28.06 and 30.69	19.03 and 15.89 and 21.18 and 22.9 and 35.39	10.86 and 11.87 and 9.36 and 23.13 and 11.98			
